Data reported in patent US12084419B2, “Cell metabolism modulating compounds and uses thereof” (CRESCENTA BIOSCIENCES, priority 2020, dated 2024).

Biological target: T1, His6 tagged human recombinant FABP4 (Homo sapiens, UniProt P15090)
T1 construct: purchased Cayman Chemicals 10009549
Assay: FABP4 TR-FRET assay: displacement of BODIPY FL C12 fatty acid
Conditions: triplicates, inhibition of BODIPY FL C12 binding; for inhibition at 1 µM: 1 μM compound; for inhibition at 10 µM: 10 μM compound
Method in brief: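 TR-FRET with a Tb anti-His6 antibody donor and BODIPY FL C12 as acceptor; compounds came from 0.362 and 0.0362 mM DMSO stocks. Protein (83 nM) and antibody (49.6 nM) solutions were premixed 30 min on ice in 25 mM Tris pH 7.4 with γ-globulins, NP-40 and DTT. Incubation was 10 min at room temperature; inhibition came from the 520/615 nm ratio.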

T1 sequence (P15090 whole entry): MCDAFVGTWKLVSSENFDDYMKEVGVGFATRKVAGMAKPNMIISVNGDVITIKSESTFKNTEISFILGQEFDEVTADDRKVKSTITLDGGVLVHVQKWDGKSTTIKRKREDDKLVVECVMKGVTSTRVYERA

| SMILES | inhibition at 1 µM [%] | inhibition at 10 µM [%] |
| --- | --- | --- |
| CCC1CCc2c(n(Cc3cccc(C(=O)O)c3)c3c(C(=O)O)cccc23)C1 (centres unmarked) [9-[(3-carboxyphenyl)methyl]-2-ethyl-2,3,4,9-tetrahydro-1H-carbazole-8-carboxylic acid] | 23.5 | 69.2 |
| CCCCCCC1CCc2c(n(Cc3cccc(C(=O)O)c3)c3c(C(=O)O)cccc23)C1 (centres unmarked) [9-[(3-carboxyphenyl)methyl]-2-hexyl-2,3,4,9-tetrahydro-1H-carbazole-8-carboxylic acid] | 23.9 | 73 |
| CCC1CCCc2c1c1cccc(C(=O)O)c1n2Cc1cccc(C(=O)O)c1 (centres unmarked) [9-[(3-carboxyphenyl)methyl]-4-ethyl-2,3,4,9-tetrahydro-1H-carbazole-8-carboxylic acid] | 52.1 | 85.4 |
| CCCCCOC1CCCc2c1n(Cc1cccc(C#N)c1)c1c(C(=O)O)cccc21 (centres unmarked) [9-[(3-cyanophenyl)methyl]-1-(pentyloxy)-2,3,4,9-tetrahydro-1H-carbazole-8-carboxylic acid] | 7.56 | 63.3 |
| CCC1CCCc2c1n(Cc1cccc(C#N)c1)c1c(C(=O)O)cccc21 (centres unmarked) [9-[(3-cyanophenyl)methyl]-1-ethyl-2,3,4,9-tetrahydro-1H-carbazole-8-carboxylic acid] | 44.2 | 87.6 |
| N#Cc1cccc(Cn2c3c(c4cccc(C(=O)O)c42)CCC(CCc2ccccc2)C3)c1 (centres unmarked) [9-[(3-cyanophenyl)methyl]-2-(2-phenylethyl)-2,3,4,9-tetrahydro-1H-carbazole-8-carboxylic acid] |  | 92.3 |
| CCCCCCC1CCc2c(n(Cc3cccc(C#N)c3)c3c(C(=O)O)cccc23)C1 (centres unmarked) [9-[(3-cyanophenyl)methyl]-2-hexyl-2,3,4,9-tetrahydro-1H-carbazole-8-carboxylic acid] | 63.6 | 83.4 |
| CCCCCC1CCc2c(n(Cc3cccc(C#N)c3)c3c(C(=O)O)cccc23)C1 (centres unmarked) [9-[(3-cyanophenyl)methyl]-2-pentyl-2,3,4,9-tetrahydro-1H-carbazole-8-carboxylic acid] | 60.8 | 77.1 |
| CCCC1CCc2c(n(Cc3cccc(C#N)c3)c3c(C(=O)O)cccc23)C1 (centres unmarked) [9-[(3-cyanophenyl)methyl]-2-propyl-2,3,4,9-tetrahydro-1H-carbazole-8-carboxylic acid] | 55.6 | 81.4 |
| CCC1CCc2c(c3cccc(C(=O)O)c3n2Cc2cccc(C#N)c2)C1 (centres unmarked) [9-[(3-cyanophenyl)methyl]-3-ethyl-2,3,4,9-tetrahydro-1H-carbazole-8-carboxylic acid] | 45.8 | 90.3 |
| CCCCCC1CCc2c(c3cccc(C(=O)O)c3n2Cc2cccc(C#N)c2)C1 (centres unmarked) [9-[(3-cyanophenyl)methyl]-3-pentyl-2,3,4,9-tetrahydro-1H-carbazole-8-carboxylic acid] | 57.4 | 83.3 |
| CCCC1CCc2c(c3cccc(C(=O)O)c3n2Cc2cccc(C#N)c2)C1 (centres unmarked) [9-[(3-cyanophenyl)methyl]-3-propyl-2,3,4,9-tetrahydro-1H-carbazole-8-carboxylic acid] | 46.8 | 85.4 |
| N#Cc1cccc(Cn2c3c(c4cccc(C(=O)O)c42)C(CCc2ccccc2)CCC3)c1 (centres unmarked) [9-[(3-cyanophenyl)methyl]-4-(2-phenylethyl)-2,3,4,9-tetrahydro-1H-carbazole-8-carboxylic acid] | 31 | 53.4 |
| CCCCCC1CCCc2c1c1cccc(C(=O)O)c1n2Cc1cccc(C#N)c1 (centres unmarked) [9-[(3-cyanophenyl)methyl]-4-pentyl-2,3,4,9-tetrahydro-1H-carbazole-8-carboxylic acid] | 26.3 | 73.7 |
| CCCCCCC1CCc2c(n(Cc3ccc(C(N)=O)cc3)c3c(C(=O)O)cccc23)C1 (centres unmarked) [9-[(4-carbamoylphenyl)methyl]-2-hexyl-2,3,4,9-tetrahydro-1H-carbazole-8-carboxylic acid] | 87.3 | 89.3 |
| CCCCCCC1CCc2c(n(Cc3ccc(C#N)cc3)c3c(C(=O)O)cccc23)C1 (centres unmarked) [9-[(4-cyanophenyl)methyl]-2-hexyl-2,3,4,9-tetrahydro-1H-carbazole-8-carboxylic acid] | 39.7 | 78.9 |
| CCCCC1CCCCc2c1c1cccc(C(=O)O)c1n2Cc1cccc(C(N)=O)c1 (centres unmarked) [10-butyl-5-[(3-carbamoylphenyl)methyl]-5H,6H,7H,8H,9H,10H-cyclohepta[b]indole-4-carboxylic acid] | 63.3 | 87.9 |
| CCCCC1CCCCc2c1c1cccc(C(=O)O)c1n2Cc1cccc(C#N)c1 (centres unmarked) [10-butyl-5-[(3-cyanophenyl)methyl]-5H,6H,7H,8H,9H,10H-cyclohepta[b]indole-4-carboxylic acid] | 30.9 | 73.6 |
